Experimental data taken from paper PMC8890542, “Discovery of novel paeonol-based derivatives against skin inflammation in vitro and in vivo” (Journal of Enzyme Inhibition and Medicinal Chemistry, 2022).

Key:
[1] = tested on: JNK; assay: Western blot, SUV-induced JNK phosphorylation in HaCaT cells; format: cell-based, human; details: SUV (40 kJ/m^2) 30 min
Description: (§1) HaCaT cells were seeded into 6-well plate with 2 × 10^6 cells per well. After 24 h culture and 12 h starvation, they were stimulated with SUV irradiation. The cells were irritated with 40 KJ/m^2 doses of SUV at 30 min. In order to study the effect of compound B12, the cells were starved in serum-free medium for 12 h, and then pre-treated with compound B12 (2.5, 5, 10 μM) for 6 h before SUV irradiation. Follow the same steps as above to transfer the electrophoretic band to PVDF membrane. All steps were performed in the same way as above except that the types of primary and secondary antibodies were different.

[2] = tested on: IMQ-induced psoriasis mouse model; assay: IMQ-induced psoriasis-like skin inflammation mouse model; format: in vivo, BALB/c mice
From the text: During treatment for 7 days, to score the severity of inflammation of mouse skin, an objective scoring system was developed based on the clinical psoriasis area and severity index. Erythema, scaling, and thickening were scored independently from 0 to 4 as follows: 0, none; 1, slight; 2, moderate; 3, marked; 4, very marked and weight loss. The cumulative score (erythema plus scaling plus thickening) served to indicate the severity of inflammation (scale 0 ∼ 12). On the 8th day, the mice were taken eyeball blood and back skin. One-half of the samples were immediately fixed in 4% paraformaldehyde and for haematoxylin and eosin (H&E) staining. The other samples were put in a −80 °C freezer. Before used, they were placed at room temperature for 30 min. After that, they were added 1 × PBS proportionally, homogenised and centrifuged. The supernatant was collected and used for ELISA assay and Western blot assay. […] The histological image was obtained using 3[sequence]’s Slide Converter (3[sequence], Hungary).

[3] = tested on: NF-κB p65; assay: Western blot, LPS-induced NF-κB p65 translocation in RAW264.7; format: cell-based, mouse; details: LPS (0.5 μg/mL) 30 min
Description: (§2) RAW264.7 cells were seeded into 6-well plate with 2 × 10^6 cells per well and maintained about 24 h, and then pre-treated with compound B12 (2.5, 5, 10 µM) for 1 h, co-treated with LPS (0.5 µg/mL) for 0.5 h or 24 h. Western blotting assay was performed as the method described previously. Briefly, the cells were lysed in […] RIPA cell lysis buffer (Contains PMSF and phosphatase inhibitors, Beyotime China) and incubated on ice for 30 min. Collecting supernatant by centrifugation. The same amount of protein was separated by SDS-PAGE and transferred to PVDF membrane (GE Healthcare, Amersham, UK). The blotted membrane incubated with the primary antibodies and allowed to react for an additional 16 h at 4 °C. All antibodies obtain from Cell Signalling Technology, Boston, MA. The membranes incubated with a 1:5000 dilutions of HRP-conjugated secondary antibody (Beyotime Biotech, Nantong, China) for 1 h at room temperature. Signals were visualised using ECL system (Thermo Fisher Scientific, Waltham, MA).

[4] = tested on: LPS-induced HaCaT cells; assay: Hyperproliferation assay, LPS-stimulated HaCaT cells (MTT); format: cell-based, human; details: pre-treated 6 h, LPS 24 h
Description: HaCaT cells were seeded in 96-well plates and cultured at 37 °C in a humidified 5% CO2 atmosphere. When the cell confluency reached 60–70%, HaCaT cells were then starved in serum-free DMEM for 12 h before stimulated by 100 ng/mL LPS for 24 h to mimic hyperproliferative psoriatic keratinocytes. The cell viability was measured by MTT method. Results are expressed as the percentage survival of cells in the cell treated group and the untreated control group (without the tested compound and LPS).

[5] = Cell viability assay (MTT), RAW264.7; format: cell-based, mouse; details: mouse, RAW264.7 cells, read-out: Cytotoxicity IC50 with RAW264.7
Description: (§3) RAW264.7 cells (1 × 10^4 cells/well) were seeded into 96-well plate and used for experiments after 24 h. Compounds (4 µM, 20 µM and 100 µM) treated cell for 24 h. Forty microliters of MTT solution (5 mg/mL, Sigma-Aldrich) was then added and incubated for an additional 4 h. After 4 h, cell culture supernatants were removed and DMSO (150 µL) was added into per well for dissolving the resulting crystals. Shaking about 1 0 ∼ 15 min and the absorbance at 492 nm was measured by a microplate reader (MQX200, Bio-Tek, Winooski, VT). At least three independent experiments were performed for the determination of IC50 values, which were shown as mean ± SD. All experimental data were analysed by using GraphPad Prism software, version 8.0 (GraphPad Inc.).

[6] = tested on: RAW264.7 cells; assay: Cell viability assay (MTT), RAW264.7; format: cell-based, mouse; details: 24 h, read-out: Cytotoxicity IC50 with RAW264.7
Description: as §3

[7] = tested on: COX-2; assay: Western blot of COX-2 in LPS-stimulated RAW264.7 cells; format: cell-based, mouse; details: 2.5, 5, 10 µM, 1 h, LPS 24 h
Description: as §2

[8] = tested on: JNK; assay: Western blot, LPS-induced JNK phosphorylation in RAW264.7; format: cell-based, mouse; details: LPS (0.5 μg/mL) 30 min
Description: as §2

[9] = tested on: LPS-induced nitric oxide production in RAW264.7 cells; assay: LPS-induced NO production, Griess Reagent assay; format: cell-based, mouse; details: Mus musculus
Description: RAW264.7 cells (7 × 10^4 cells/well) were seeded into 48-well plate and used for experiments after 24 h. […] After 24 h collect cell supernatant, NO production was measured using Griess Reagent assay (Beyotime). Griess reagent were mixed at a ratio of 1:1, and reacted at room temperature for 15 min. Measurement of absorbance at […] with enzyme reader. At least three independent experiments were performed for the determination of IC50 values, which were shown as mean ± SD. All experimental data were analysed by using GraphPad Prism software, version 8.0 (GraphPad Inc.).

[10] = tested on: iNOS; assay: Western blot of iNOS in LPS-stimulated RAW264.7 cells; format: cell-based, mouse; details: 2.5, 5, 10 µM, 1 h, LPS 24 h
Description: as §2

[11] = tested on: P38; assay: Western blot, LPS-induced p38 phosphorylation in RAW264.7; format: cell-based, mouse; details: LPS (0.5 μg/mL) 30 min
Description: as §2

[12] = tested on: p38; assay: Western blot, SUV-induced p38 phosphorylation in HaCaT cells; format: cell-based, human; details: SUV (40 kJ/m^2) 30 min
Description: as §1

[13] = Cell viability assay (MTT), LO2; format: cell-based; details: human, LO2 cells, read-out: Cytotoxicity IC50 with LO2
[14] = Human liver microsomes stability assay in vitro; format: in vitro ADME
Description: The livers were homogenised initially in a Tris (0.1 M)/KCl (0.1 M)/EDTA (1 mM)/butylated sodium hydroxytoluene (BHT) (0.02 mM) buffer. Add 1.5 µL control/test compound B12 working solution to 238.5 µL liver microsome working solution, gently mix. Pre-incubate at 37 °C for 5 min. Start the reaction by adding 60 µL NADPH working solution. Mix by pipetting up and down. At each time point: 0, 5, 15, 30 and 60 min, remove 30 µL of reaction mixture to 300 µL of quenching solution. Vortex vigorously for ∼1 min and centrifuge at 4000 rpm at 4 °C for 15 min. Remove 100 µL of the supernatant and mixed with 100 µL distilled water for LC-MS/MS analysis.

[15] = tested on: STAT3; assay: Western blot, SUV-induced STAT3 phosphorylation in HaCaT cells; format: cell-based, human; details: 2.5 μM to 10 μM, 6 h before 40 KJ/m^2 SUV
Description: as §1

[16] = target: T1, TOPK (Homo sapiens, UniProt Q96KB5); assay: Cellular thermal shift assay (CETSA); format: binding; details: especially at 57 °C
T1 construct: endogenous in cells
T1 sequence (Q96KB5 1-322): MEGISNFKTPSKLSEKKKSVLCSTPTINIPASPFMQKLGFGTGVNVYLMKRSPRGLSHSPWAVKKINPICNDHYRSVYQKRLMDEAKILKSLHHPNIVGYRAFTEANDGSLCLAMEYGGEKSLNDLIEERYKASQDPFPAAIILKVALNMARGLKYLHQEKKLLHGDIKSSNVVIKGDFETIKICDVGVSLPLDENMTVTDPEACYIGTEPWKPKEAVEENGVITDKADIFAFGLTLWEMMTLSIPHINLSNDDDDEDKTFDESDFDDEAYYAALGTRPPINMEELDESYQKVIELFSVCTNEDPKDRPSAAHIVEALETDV
From the text: Based on the ligand-induced thermal stabilisation of target proteins, the cellular thermal shift assay (CETSA) assay is likely to validate drug binding, off-target effects or drug resistance in cell lines. To further detect the direct binding of compound B12 with TOPK protein, CETSA was used in this study.

[17] = tested on: γ-H2AX; assay: Western blot, SUV-induced γ-H2AX in HaCaT cells; format: cell-based, human; details: 2.5 μM to 10 μM, 6 h before 40 KJ/m^2 SUV
Description: as §1

IC50 ([9]; LPS (0.5 μg/mL) 24 h): 2140 nM
CLhep ([14]; human): 8.5 mL/min/kg
half-life ([14]; human liver microsomes): 111 min
microsomal CLint ([14]; human liver microsomes): 12.5 µL/min/mg
Thermal stability of TOPK (CETSA) [16]: stabilised
SMILES: COc1cc(O)c(C(C)=O)cc1NC(=O)Nc1cccc(C(F)(F)F)c1 [Compound B12, 1–(5-acetyl-4-hydroxy-2-methoxyphenyl)-3–(3-(trifluoromethyl)phenyl) urea]
Phosphorylation of JNK, SUV-induced [1]: inhibited
Pathological reduction, H&E of skin tissue ([2]; 20 mg/kg, intragastric once a day, 7 days): moderate pathological reduction
Pathological reduction, H&E of skin tissue ([2]; 40 mg/kg, intragastric once a day, 7 days): high pathological reduction
Expression of related proteins (p-STAT3, p-TOPK, TOPK, p-p38, p-JNKs, PCNA, p-H2AX) in mouse skin tissues ([2]; 20 and 40 mg/kg, Western blot): decreased significantly
Experimental symptoms and PASI score ([2]; B12 20 and 40 mg/kg, Dex 20 mg/kg, intragastric once a day, 7 days): significantly attenuated experimental symptoms and PASI score in a dose-dependent manner
NF-κB p65 translocation into the nucleus [3]: inhibited
Excessive proliferation of LPS-induced HaCaT cells [4]: inhibited excessive proliferation of LPS-induced HaCaT cells in a dose dependent manner
IC50 at 24 h [5]: > 50 µM
IC50 [6]: > 100 µM
Expression of COX-2 [7]: inhibited by compound B12 in a dose-dependent manner
JNK protein phosphorylation [8]: inhibited
inhibition at 10 µM ([9]; compounds 10 μM, 1 h, then LPS (0.5 μg/mL) 24 h, read-out: Inhibition rate±SD (%) against NO production): 95.5 ± 3.26%
Expression of iNOS [10]: inhibited by compound B12 in a dose-dependent manner
P38 protein phosphorylation [11]: inhibited
Phosphorylation of p38, SUV-induced [12]: inhibited
IC50 at 24 h [13]: > 100 µM
Level of phosphorylated STAT3 [15]: gradually decreased
Level of phosphorylated γ-H2AX [17]: gradually decreased
